The results in this text go back to patent US9718781B2, “Methods and compounds for treating proliferative disorders and viral infections” (University College Dublin, National University of Ireland, …, priority 2012, dated 2017).

The test system of the assay is human platelets. Nature of the assay: U46619-induced human platelet aggregation ex vivo (platelet rich plasma). The class given is cell-based. An excerpt: A modification of the turbidimetric method originally developed by Born & Cross (Born, G. V. and Cross, M. J., The Aggregation of Blood Platelets, J Physiol, 1963, 168:178-95) is used. The principle is based on the diffraction of the light by particles. When a light beam passes through a suspension of particles, it is diffracted, depending on the number and the size of the particles in suspension.
In the Born & Cross method, a light beam passes through a platelet suspension and the quantity of light is measured by a detector placed after the sample. Upon platelet aggregation, the size of platelet aggregates will increase while the total number of free platelets will decrease. Consequently, less light will be diffracted and the detector will record an increase in light intensity. The aggregometer has been developed based on these concepts. Variations in light transmission recorded by this device reflects the platelet physiology. When an agonist of platelet aggregation is added to a platelet suspension, platelets undergo activation and shape change. This step is characterized by an increase in platelet's apparent volume and thus a decrease of transmitted light. Subsequent platelet aggregation gradually forms aggregates of increasing size. Transmitted light slightly increases until a plateau is reached. The aggregation of platelet can be confirmed after the experiment by visual direct inspection of the test tube.
Preparation of platelet suspension is achieved by blood centrifugation at 160 g for 10 minutes. The PRP is re-centrifuged at 160 g for 10 min to remove contaminating red and white blood cells. The supernatant which is collected contains the platelets rich plasma (PRP). The remaining blood is subsequently centrifuged at 900 g for 15 min in order to retrieve plasma (platelets poor plasma, PPP). PRP is diluted with PPP to reach a final concentration of 150×10^3 […] PRP is kept warmed at 37° C. in the aggregometer and the adequate dilution of drug to test is introduced in the sample. Platelet aggregation is induced after 10 minutes incubation. Light transmission (T) is measured throughout the experiment, which is ended 8 minutes after induction of aggregation. Maximal light transmission (Tmax) is determined in the sample without drugs. Minimal light transmission (Tmin) is measured in PRP without inducer.
The effect of NTP4 and the previously identified lead TP antagonist, TP20, on U46619-mediated platelet aggregation in side-by-side comparisons was performed in platelet rich plasma (PRP) using the PAP-8E platelet aggregometer.
FIG. 4A-4C show the effect of TP20 & NTP4 on U46619-mediated platelet aggregation. PRP was prepared from blood taken from healthy volunteers into syringes containing 3.8% sodium citrate and 10 μM indomethacin such that the final ratio of anticoagulant to blood was 1:9. Aliquots of PRP (300 μl) were pre-incubated for 10 min with the TP antagonists, TP20 and NTP4, where 2-fold serial dilutions from 1 μM were prepared for each, prior to stimulating platelets with 1 μM U46619, incubated at 37° C., with stirring. FIG. 4A and FIG. 4B: Representative dose-response platelet aggregation profiles for TP20 (FIG. 4A) and NTP4 (FIG. 4B), where data is presented as Percentage Aggregation, as determined by changes in light transmission using the PAP-8E Platelet Aggregation Profiler as a function of time. FIG. 4C: The dose-response curves for platelet aggregation are presented as the mean (±S.E.M.) maximum Percentage Aggregation as a function of the log of the TP antagonist concentration. Data presented is representative of ≧6 independent experiments.

Setting [1] is: PRP, PAP-8E aggregometer, 1 μM U46619, side-by-side, read-out: IC50 Value for Inhibition of U46619-Mediated Platelet Aggregation (Mean ± S.E.M.).

The structures appear in SMILES notation. Where two headings read alike, the source gives them in different places.

One may read the IC50 as the concentration at which inhibition is half-maximal. For `COc1ccc(-c2cccc(Oc3ccc(C#N)cc3S(=O)(=O)NC(=O)NC(C)(C)C)c2)cc1` [NTP4, N-(tert-butylcarbamoyl)-5-cyano-2-((4′-methoxy-[1,1′-biphenyl]-3-yl)oxy)benzenesulfonamide], the concentration for half-maximal inhibition (IC50) by setting is: (Homo sapiens, Platelet, PRP, PAP-8E aggregometer, 1 μM U46619, side-by-side, read-out: IC50 Value for Inhibition of U46619-Mediated Platelet Aggregation (Mean ± S.E.M.)) 41.5 ± 7.69 nM; under setting [1], 40.3 ± 7.08 nM.

Take `COc1ccc(-c2cccc(Oc3ccc([N+](=O)[O-])cc3S(=O)(=O)NC(=O)NC(C)(C)C)c2)cc1` [TP20, N-(tert-butylcarbamoyl)-2-((4′-methoxy-[1,1′-biphenyl]-3-yl)oxy)-5-nitrobenzene-sulfonamide]: the IC50 runs as follows: (Homo sapiens, Platelet, human platelets ex vivo, Table 3, read-out: IC50 data for inhibition of U46619-induced platelet aggregation) 4.71 nM; under setting [1], 4.62 ± 0.72 nM.
